What all share (experiment): relative viability (nuclei count vs DMSO), 5 days (fraction); higher = more cells survive
Compound in experiment [1]: OCc1c[nH]c2ccccc12 [Indole-3-carbinol] + Cc1nc(Nc2ncc(C(=O)Nc3c(C)cccc3Cl)s2)cc(N2CCN(CCO)CC2)n1 [Dasatinib] (partner 0.075 µM)
The procedure, abridged:
(§1)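 Medians of duplicate plates are given as relative viability. That measure is the nuclei count in treated wells divided by the count in vehicle wells. Counts were taken on 4× images of lung cancer cell lines in 1536-well plates, 5 days after pin-tool dosing the day after seeding with one drug alone or a fixed anchor-drug dose plus five library-drug doses (not always all listed) in √10 steps.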

Compound in experiment [2]: OCc1c[nH]c2ccccc12 [Indole-3-carbinol] + CC(=O)Nc1cccc(-n2c(=O)n(C3CC3)c(=O)c3c(Nc4ccc(I)cc4F)n(C)c(=O)c(C)c32)c1 [Trametinib] (partner 0.02 µM)
The method in brief:
as §1

Compound in experiment [3]: OCc1c[nH]c2ccccc12 [Indole-3-carbinol] + CC1(C)CCC(c2ccc(Cl)cc2)=C(CN2CCN(c3ccc(C(=O)NS(=O)(=O)c4ccc(N[C@H](CCN5CCOCC5)CSc5ccccc5)c(S(=O)(=O)C(F)(F)F)c4)cc3)CC2)C1 [Navitoclax] (partner 0.5 µM)
The procedure, abridged: as §1

Compound in experiment [4]: OCc1c[nH]c2ccccc12 [Indole-3-carbinol] + CS(=O)(=O)CCNCc1ccc(-c2ccc3ncnc(Nc4ccc(OCc5cccc(F)c5)c(Cl)c4)c3c2)o1 [Lapatinib] (partner 2 µM)
The method in brief:
as §1

Compound in experiment [5]: OCc1c[nH]c2ccccc12 [Indole-3-carbinol] + COc1cc2c(Oc3ccc(NC(=O)C4(C(=O)Nc5ccc(F)cc5)CC4)cc3F)ccnc2cc1OCCCN1CCOCC1 [Foretinib] (partner 0.25 µM)
The method in brief: as §1

As for LXF-289, the relative viability in experiment [1] (first compound 0.253 µM) turned out to be 0.256; in experiment [1] (first compound 0.8 µM), 0.229; in experiment [1] (first compound 2.53 µM), 0.258; in experiment [1] (first compound 8 µM) it was 0.203; in experiment [2] (first compound 0.253 µM), 0.678; in experiment [2] (first compound 0.8 µM), 0.693. In addition, the relative viability in experiment [2] (first compound 2.53 µM) stood at 0.651; in experiment [2] (first compound 8 µM), 0.656; in experiment [3] (first compound 0.253 µM), 0.966; in experiment [3] (first compound 0.8 µM), 0.96; in experiment [3] (first compound 2.53 µM), 0.904; in experiment [3] (first compound 8 µM) it was 0.927. Moreover, the relative viability in experiment [4] (first compound 0.253 µM) stood at 0.919; in experiment [4] (first compound 0.8 µM), 0.946; in experiment [4] (first compound 2.53 µM), 0.881; in experiment [4] (first compound 8 µM), 0.841; in experiment [5] (first compound 0.253 µM), 0.973; in experiment [5] (first compound 0.8 µM) it was 0.978. The relative viability in experiment [5] (first compound 2.53 µM) came out at 0.968; in experiment [5] (first compound 8 µM), 0.945.
On to NCI-H358, for which the relative viability in experiment [1] (first compound 0.253 µM) turned out to be 0.146; in experiment [1] (first compound 0.8 µM), 0.204; in experiment [1] (first compound 2.53 µM), 0.172; in experiment [1] (first compound 8 µM), 0.189; in experiment [2] (first compound 0.253 µM), 0.119; in experiment [2] (first compound 0.8 µM), 0.122. The relative viability in experiment [2] (first compound 2.53 µM) was 0.139; in experiment [2] (first compound 8 µM), 0.121; in experiment [4] (first compound 0.253 µM), 0.519; in experiment [4] (first compound 0.8 µM), 0.422; in experiment [4] (first compound 2.53 µM) it was 0.42; in experiment [4] (first compound 8 µM) it was 0.423. In addition, the relative viability came to 0.805 in experiment [5] (first compound 0.253 µM), 0.69 in experiment [5] (first compound 0.8 µM), 0.73 in experiment [5] (first compound 2.53 µM) and 0.73 in experiment [5] (first compound 8 µM).
As to NCI-H441, the relative viability was 0.606 in experiment [1] (first compound 0.253 µM); 0.598 in experiment [1] (first compound 0.8 µM); 0.711 in experiment [1] (first compound 2.53 µM); 0.643 in experiment [1] (first compound 8 µM); 0.59 in experiment [2] (first compound 0.253 µM); 0.547 in experiment [2] (first compound 0.8 µM). Also, the relative viability in experiment [2] (first compound 2.53 µM) stood at 0.469; in experiment [2] (first compound 8 µM), 0.475; in experiment [3] (first compound 0.253 µM), 0.809; in experiment [3] (first compound 0.8 µM) it was 0.568; in experiment [3] (first compound 2.53 µM), 0.579; in experiment [3] (first compound 8 µM), 0.688. Further, the relative viability in experiment [5] (first compound 0.253 µM) was 0.784; in experiment [5] (first compound 0.8 µM), 1.1; in experiment [5] (first compound 2.53 µM), 0.952; in experiment [5] (first compound 8 µM), 1.05.
Take NCI-H650: the relative viability amounted to 0.472 in experiment [1] (first compound 0.253 µM); 0.488 in experiment [1] (first compound 0.8 µM); 0.444 in experiment [1] (first compound 2.53 µM); 0.447 in experiment [1] (first compound 8 µM); 1.13 in experiment [2] (first compound 0.253 µM); 0.958 in experiment [2] (first compound 0.8 µM). Also, the relative viability in experiment [2] (first compound 2.53 µM) was 1.04; in experiment [2] (first compound 8 µM), 0.956; in experiment [4] (first compound 0.253 µM), 0.333; in experiment [4] (first compound 0.8 µM) it was 0.817; in experiment [4] (first compound 2.53 µM) it was 0.98; in experiment [4] (first compound 8 µM), 0.842. Also, the relative viability was 1.05 in experiment [5] (first compound 0.253 µM), 1.02 in experiment [5] (first compound 0.8 µM), 1.04 in experiment [5] (first compound 2.53 µM) and 0.953 in experiment [5] (first compound 8 µM).
NCI-H661: the relative viability in experiment [1] (first compound 0.253 µM) was 0.961; in experiment [1] (first compound 0.8 µM) it was 0.827; in experiment [1] (first compound 2.53 µM), 0.819; in experiment [1] (first compound 8 µM), 0.917; in experiment [2] (first compound 0.253 µM) it was 0.526; in experiment [2] (first compound 0.8 µM), 0.564. In addition, the relative viability in experiment [2] (first compound 2.53 µM) was found to be 0.606; in experiment [2] (first compound 8 µM), 0.58; in experiment [4] (first compound 0.253 µM), 0.541; in experiment [4] (first compound 0.8 µM) it was 0.44; in experiment [4] (first compound 2.53 µM) it was 0.533; in experiment [4] (first compound 8 µM), 0.478. Also, the relative viability in experiment [5] (first compound 0.253 µM) was 1.02; in experiment [5] (first compound 0.8 µM), 1.04; in experiment [5] (first compound 2.53 µM) it was 1.03; in experiment [5] (first compound 8 µM), 1.01.
With NCI-H1563, the relative viability in experiment [1] (first compound 0.253 µM) is 0.471; in experiment [1] (first compound 0.8 µM), 0.428; in experiment [1] (first compound 2.53 µM), 0.429; in experiment [1] (first compound 8 µM) it was 0.479; in experiment [4] (first compound 0.253 µM), 1.03; in experiment [4] (first compound 0.8 µM), 0.818. The relative viability in experiment [4] (first compound 2.53 µM) is 0.975; in experiment [4] (first compound 8 µM) it was 0.967; in experiment [5] (first compound 0.253 µM), 0.865; in experiment [5] (first compound 0.8 µM) it was 0.799; in experiment [5] (first compound 2.53 µM), 0.914; in experiment [5] (first compound 8 µM), 0.859.
NCI-H1703: the relative viability in experiment [3] (first compound 0.253 µM) was determined as 1.01; in experiment [3] (first compound 0.8 µM), 1.48; in experiment [3] (first compound 2.53 µM) it was 1.47; in experiment [3] (first compound 8 µM) it was 1.18; in experiment [4] (first compound 0.253 µM), 1.25; in experiment [4] (first compound 0.8 µM) it was 1.36. For the same cell line, the relative viability in experiment [4] (first compound 2.53 µM) is 0.945; in experiment [4] (first compound 8 µM) it was 0.903; in experiment [5] (first compound 0.253 µM), 0.342; in experiment [5] (first compound 0.8 µM), 0.376; in experiment [5] (first compound 2.53 µM), 0.309; in experiment [5] (first compound 8 µM), 0.326.
Regarding NCI-H1792, the relative viability amounted to 0.823 in experiment [1] (first compound 0.253 µM); 1.05 in experiment [1] (first compound 0.8 µM); 0.845 in experiment [1] (first compound 2.53 µM); 0.737 in experiment [1] (first compound 8 µM); 0.436 in experiment [2] (first compound 0.253 µM); 0.369 in experiment [2] (first compound 0.8 µM). Also, the relative viability was 0.432 in experiment [2] (first compound 2.53 µM); 0.379 in experiment [2] (first compound 8 µM); 0.655 in experiment [3] (first compound 0.253 µM); 0.619 in experiment [3] (first compound 0.8 µM); 0.737 in experiment [3] (first compound 2.53 µM); 0.644 in experiment [3] (first compound 8 µM). The relative viability is 0.913 in experiment [4] (first compound 0.253 µM), 0.945 in experiment [4] (first compound 0.8 µM), 0.903 in experiment [4] (first compound 2.53 µM) and 0.93 in experiment [4] (first compound 8 µM).
In the case of NCI-H2342, the relative viability in experiment [1] (first compound 0.253 µM) was determined as 0.355; in experiment [1] (first compound 0.8 µM), 0.323; in experiment [1] (first compound 2.53 µM) it was 0.317; in experiment [1] (first compound 8 µM), 0.285; in experiment [2] (first compound 0.253 µM) it was 0.824; in experiment [2] (first compound 0.8 µM), 0.931. For the same cell line, the relative viability in experiment [2] (first compound 2.53 µM) was determined as 0.866; in experiment [2] (first compound 8 µM), 0.764; in experiment [5] (first compound 0.253 µM), 1.12; in experiment [5] (first compound 0.8 µM), 1.04; in experiment [5] (first compound 2.53 µM), 1.06; in experiment [5] (first compound 8 µM), 0.999.
On to SW 900, for which the relative viability in experiment [1] (first compound 0.253 µM) came to 0.837; in experiment [1] (first compound 0.8 µM), 0.79; in experiment [1] (first compound 2.53 µM), 0.438; in experiment [1] (first compound 8 µM), 0.586; in experiment [2] (first compound 0.253 µM) it was 0.866; in experiment [2] (first compound 0.8 µM), 0.867. The relative viability is 0.82 in experiment [2] (first compound 2.53 µM); 0.992 in experiment [2] (first compound 8 µM); 0.796 in experiment [5] (first compound 0.253 µM); 1.05 in experiment [5] (first compound 0.8 µM); 0.877 in experiment [5] (first compound 2.53 µM); 0.819 in experiment [5] (first compound 8 µM).

(Values after the supplement of paper PMC10307832.)
